Tests used:
Format in all cases: biochemical
Tec = target: T1, Tec (Homo sapiens, UniProt P42680); assay: Tec kinase inhibition
T1 sequence (P42680 1-631): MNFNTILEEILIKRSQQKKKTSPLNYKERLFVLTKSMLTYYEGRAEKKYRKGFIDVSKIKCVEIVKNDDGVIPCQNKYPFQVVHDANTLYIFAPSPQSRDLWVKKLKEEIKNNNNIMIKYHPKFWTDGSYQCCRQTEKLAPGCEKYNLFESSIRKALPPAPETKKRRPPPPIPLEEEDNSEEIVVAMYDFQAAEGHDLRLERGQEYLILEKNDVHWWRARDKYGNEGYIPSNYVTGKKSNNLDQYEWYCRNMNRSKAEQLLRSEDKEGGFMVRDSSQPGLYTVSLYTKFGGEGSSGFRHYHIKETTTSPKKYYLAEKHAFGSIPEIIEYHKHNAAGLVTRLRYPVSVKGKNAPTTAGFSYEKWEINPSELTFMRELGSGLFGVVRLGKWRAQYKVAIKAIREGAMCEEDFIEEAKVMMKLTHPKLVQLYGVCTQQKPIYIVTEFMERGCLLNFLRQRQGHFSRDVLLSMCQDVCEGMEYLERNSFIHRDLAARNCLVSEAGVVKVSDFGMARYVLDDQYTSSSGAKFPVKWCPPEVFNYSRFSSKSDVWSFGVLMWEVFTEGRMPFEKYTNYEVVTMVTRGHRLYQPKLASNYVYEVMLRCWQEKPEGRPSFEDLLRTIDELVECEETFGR
Method: (§1) Btk kinase activity was determined using a time-resolved fluorescence resonance energy transfer (TR-FRET) methodology. Measurements were performed in a reaction volume of 50 μL using 96-well assay plates. […] The reaction was quenched by the addition of 1.2 equivalents of EDTA (relative to divalent cation) in 25 μL of 1× Lance buffer (Perkin-Elmer). Streptavidin-APC (Perkin-Elmer) and Eu-labeled p-Tyr100 antibody (Perkin-Elmer) in 1× Lance buffer were added in a 25 μL volume to give final concentrations of 100 nM and 2.5 nM, respectively, and the mixture was allowed to incubate for one hour. The TR-FRET signal was measured on a multimode plate reader with an excitation wavelength (λEx) of 330 nm and detection wavelengths (λEm) of 615 and 665 nm. Activity was determined by the ratio of the fluorescence at 665 nm to that at 615 nm. For each compound, enzyme activity was measured at various concentrations of compound. Negative control reactions were performed in the absence of inhibitor in replicates of six, and two no-enzyme controls were used to determine baseline fluorescence levels Inhibition constants, Ki(app), were obtained using the program BatchKi (Kuzmic et al. (2000), Anal. Biochem. 286:45-50). IC50s were obtained according to the equation: IC50={Ki(app)/(1+[ATP]/Km^ATP)}+[E]total/2; For all kinases, [ATP]=Km^ATP, [Btk]total=0.5 nM and [Lck]total=6 nM.

EGFR = EGFR (Homo sapiens, UniProt P00533); assay: EGFR kinase inhibition
Lck = Lck (Homo sapiens, UniProt P06239); assay: Lck kinase inhibition
Method: as §1

Btk = target: T2, Btk (Homo sapiens, UniProt Q06187); assay: Btk in vitro inhibitory activity (one of Methods A, B, C); conditions: determined in one of three in vitro assays (Examples 125-127)
T2 construct: purified from insect cells as a full-length construct containing a N-terminal 6×-His tag; 6xHis (N); host or cells: insect cells (baculovirus Sf21 in Method B)
Method: The Btk IC50s of compounds disclosed herein was determined in one of the three in vitro assays described in Examples 125-127.
as §1
Kinase activity is measured in vitro using electrophoretic mobility shift assay. The kinase reactions are assembled in a total volume of 25 μL in 384 well plates. […] The reaction is incubated for one hour and is quenched by the addition of 45 μL of termination buffer (100 mM HEPES, pH7.5, 0.01% Triton X-100, 30 mM EDTA). The terminated reactions are analyzed using 12 channel LabChip® 3000 microfluidic detection instrument (Caliper Life Sciences). The enzymatic phosphorylation of the peptide results in a change in net charge, enabling electrophoretic separation of product from substrate peptide. As substrate and product peptides are separated, two peaks of fluorescence are observed. Change in the relative fluorescence intensity of the substrate and product peaks is the parameter measured, reflecting enzyme activity. In the presence of an inhibitor, the ratio between product and substrate is altered: the signal of the product decreases, while the signal of the substrate increases.
Activity in each sample is determined as the product to sum ratio (PSR): P/(S+P), where P is the peak height of the product peptide and S is the peak height of the substrate peptide. For each compound, enzyme activity is measured at various concentrations (12 concentrations of compound spaced by 3× dilution intervals). Negative control samples (0%-inhibition in the absence of inhibitor) and positive control samples (100%-inhibition, in the presence of 20 mM EDTA) are assembled in replicates of four and are used to calculate %-inhibition values for each inhibitor at each concentration. Percent inhibition (Pinh) is determined using following equation: Pinh=(PSR0%−PSRinh)/(PSR0%−PSR100%)*100, where PSRinh is the product sum ratio in the presence of inhibitor, PSR0% is the average product sum ration in the absence of inhibitor and PSR100% is the average product sum ratio in 100%-inhibition control samples;
The IC50 values of inhibitors are determined by 4 parameter sigmoidal dose-response model fitting of the inhibition curves (Pinh versus inhibitor concentration) using XLfit 4 software.
Human Btk kinase (Genbank accession # NP_000052) was purified from insect cells as a full-length construct containing a N-terminal 6×-His tag. Btk kinase activity was determined using a radiometric filter binding assay. Measurements are performed in a low reaction volume 384-well assay plates. […]

BMX = target: T3, BMX (Homo sapiens, UniProt P51813); assay: BMX kinase inhibition
T3 sequence (P51813 1-675): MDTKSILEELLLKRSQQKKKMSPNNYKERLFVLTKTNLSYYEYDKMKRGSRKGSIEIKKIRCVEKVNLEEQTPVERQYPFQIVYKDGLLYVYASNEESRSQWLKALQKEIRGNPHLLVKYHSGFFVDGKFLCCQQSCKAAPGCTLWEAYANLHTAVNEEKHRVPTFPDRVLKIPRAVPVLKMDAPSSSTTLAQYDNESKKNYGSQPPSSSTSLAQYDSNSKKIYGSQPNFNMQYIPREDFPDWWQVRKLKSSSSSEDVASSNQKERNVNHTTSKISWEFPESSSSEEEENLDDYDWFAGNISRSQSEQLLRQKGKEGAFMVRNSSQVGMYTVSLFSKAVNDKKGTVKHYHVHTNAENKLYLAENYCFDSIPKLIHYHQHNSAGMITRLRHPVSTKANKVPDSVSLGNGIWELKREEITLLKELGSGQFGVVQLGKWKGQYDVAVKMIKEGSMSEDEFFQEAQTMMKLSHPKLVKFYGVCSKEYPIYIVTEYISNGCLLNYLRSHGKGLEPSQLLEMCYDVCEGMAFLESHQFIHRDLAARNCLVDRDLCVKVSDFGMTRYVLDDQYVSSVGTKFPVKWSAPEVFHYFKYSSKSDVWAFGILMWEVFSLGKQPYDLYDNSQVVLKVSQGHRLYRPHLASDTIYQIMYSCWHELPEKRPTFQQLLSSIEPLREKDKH

CSK = CSK (Homo sapiens, UniProt P41240); assay: CSK kinase inhibition
C-src = C-src (Homo sapiens, UniProt P12931); assay: C-src kinase inhibition
Method: as §1

Lyn = Lyn (Homo sapiens, UniProt P07948); assay: Lyn kinase inhibition
BLK = BLK (Homo sapiens, UniProt P51451); assay: BLK kinase inhibition
Method: as §1

RET = RET (Homo sapiens, UniProt P07949); assay: RET kinase inhibition
Sequence of RET (P07949 29-1114): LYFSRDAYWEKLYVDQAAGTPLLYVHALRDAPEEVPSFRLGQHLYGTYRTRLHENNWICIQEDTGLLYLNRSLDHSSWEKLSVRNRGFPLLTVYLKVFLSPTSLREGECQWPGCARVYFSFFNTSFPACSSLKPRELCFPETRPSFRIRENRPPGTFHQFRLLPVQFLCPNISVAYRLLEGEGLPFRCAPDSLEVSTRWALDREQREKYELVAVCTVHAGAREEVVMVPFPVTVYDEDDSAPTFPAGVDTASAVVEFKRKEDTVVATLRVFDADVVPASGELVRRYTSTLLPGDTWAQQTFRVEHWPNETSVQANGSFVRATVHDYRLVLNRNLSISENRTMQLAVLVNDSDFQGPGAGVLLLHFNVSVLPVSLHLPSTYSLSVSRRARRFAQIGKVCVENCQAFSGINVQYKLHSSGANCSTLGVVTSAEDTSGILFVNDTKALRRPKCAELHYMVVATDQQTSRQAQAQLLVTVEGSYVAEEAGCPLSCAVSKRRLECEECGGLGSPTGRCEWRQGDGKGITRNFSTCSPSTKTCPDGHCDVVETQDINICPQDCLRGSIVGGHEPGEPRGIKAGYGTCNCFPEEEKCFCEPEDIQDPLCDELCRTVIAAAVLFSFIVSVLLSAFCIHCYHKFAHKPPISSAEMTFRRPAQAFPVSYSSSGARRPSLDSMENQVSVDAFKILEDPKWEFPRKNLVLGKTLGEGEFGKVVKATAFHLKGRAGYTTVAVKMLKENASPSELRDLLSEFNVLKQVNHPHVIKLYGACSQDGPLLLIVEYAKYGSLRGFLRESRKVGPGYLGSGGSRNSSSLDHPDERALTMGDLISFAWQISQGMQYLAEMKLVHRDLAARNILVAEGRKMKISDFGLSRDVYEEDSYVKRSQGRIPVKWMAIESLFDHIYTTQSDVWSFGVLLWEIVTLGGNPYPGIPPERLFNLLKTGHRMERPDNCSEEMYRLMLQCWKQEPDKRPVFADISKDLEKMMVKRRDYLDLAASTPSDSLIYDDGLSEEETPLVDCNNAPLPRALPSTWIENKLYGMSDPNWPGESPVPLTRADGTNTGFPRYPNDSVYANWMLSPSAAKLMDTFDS

Sequence of Lck (P06239 whole entry): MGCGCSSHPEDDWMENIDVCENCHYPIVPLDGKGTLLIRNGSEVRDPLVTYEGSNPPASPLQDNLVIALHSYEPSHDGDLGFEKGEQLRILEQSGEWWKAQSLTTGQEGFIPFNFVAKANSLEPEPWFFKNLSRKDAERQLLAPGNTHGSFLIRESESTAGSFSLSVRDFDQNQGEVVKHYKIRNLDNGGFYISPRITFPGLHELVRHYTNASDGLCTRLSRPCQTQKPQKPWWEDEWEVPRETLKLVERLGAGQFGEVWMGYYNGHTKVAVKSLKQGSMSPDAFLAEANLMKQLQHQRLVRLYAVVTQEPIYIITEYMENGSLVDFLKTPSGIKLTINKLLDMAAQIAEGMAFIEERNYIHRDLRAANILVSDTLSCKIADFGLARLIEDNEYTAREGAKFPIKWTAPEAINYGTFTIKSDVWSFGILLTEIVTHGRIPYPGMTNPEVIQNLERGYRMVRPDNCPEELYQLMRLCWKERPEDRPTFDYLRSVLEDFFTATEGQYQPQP
Sequence of CSK (P41240 whole entry): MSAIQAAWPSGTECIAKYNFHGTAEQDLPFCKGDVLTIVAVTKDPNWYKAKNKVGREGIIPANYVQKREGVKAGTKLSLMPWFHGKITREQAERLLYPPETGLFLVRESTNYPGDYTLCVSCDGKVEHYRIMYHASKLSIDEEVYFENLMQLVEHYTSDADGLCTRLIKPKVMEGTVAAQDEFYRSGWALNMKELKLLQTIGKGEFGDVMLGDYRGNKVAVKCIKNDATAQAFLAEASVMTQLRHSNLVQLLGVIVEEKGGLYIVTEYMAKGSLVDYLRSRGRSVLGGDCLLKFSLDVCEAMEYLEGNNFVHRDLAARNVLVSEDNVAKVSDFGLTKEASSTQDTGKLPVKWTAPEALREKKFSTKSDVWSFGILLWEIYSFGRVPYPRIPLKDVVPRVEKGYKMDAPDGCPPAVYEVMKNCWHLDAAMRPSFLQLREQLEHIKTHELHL
T2 sequence (Q06187 whole entry): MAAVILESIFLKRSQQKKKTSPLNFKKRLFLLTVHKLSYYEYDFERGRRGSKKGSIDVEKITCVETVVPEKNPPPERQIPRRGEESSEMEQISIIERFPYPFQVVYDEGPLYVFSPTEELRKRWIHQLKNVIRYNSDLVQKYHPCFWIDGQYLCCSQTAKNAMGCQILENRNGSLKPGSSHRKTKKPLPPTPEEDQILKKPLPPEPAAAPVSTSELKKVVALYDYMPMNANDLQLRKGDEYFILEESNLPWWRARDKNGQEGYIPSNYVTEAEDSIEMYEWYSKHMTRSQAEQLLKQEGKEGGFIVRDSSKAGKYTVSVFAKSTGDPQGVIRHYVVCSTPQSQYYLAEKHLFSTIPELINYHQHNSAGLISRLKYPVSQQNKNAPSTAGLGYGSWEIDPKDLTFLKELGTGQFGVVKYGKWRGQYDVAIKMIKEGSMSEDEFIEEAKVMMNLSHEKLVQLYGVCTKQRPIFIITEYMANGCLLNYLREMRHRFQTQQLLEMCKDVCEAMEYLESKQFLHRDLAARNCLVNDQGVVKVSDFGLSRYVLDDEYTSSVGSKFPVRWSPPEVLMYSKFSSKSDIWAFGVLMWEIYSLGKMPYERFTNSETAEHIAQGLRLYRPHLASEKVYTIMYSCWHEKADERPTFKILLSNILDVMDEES
Sequence of BLK (P51451 whole entry): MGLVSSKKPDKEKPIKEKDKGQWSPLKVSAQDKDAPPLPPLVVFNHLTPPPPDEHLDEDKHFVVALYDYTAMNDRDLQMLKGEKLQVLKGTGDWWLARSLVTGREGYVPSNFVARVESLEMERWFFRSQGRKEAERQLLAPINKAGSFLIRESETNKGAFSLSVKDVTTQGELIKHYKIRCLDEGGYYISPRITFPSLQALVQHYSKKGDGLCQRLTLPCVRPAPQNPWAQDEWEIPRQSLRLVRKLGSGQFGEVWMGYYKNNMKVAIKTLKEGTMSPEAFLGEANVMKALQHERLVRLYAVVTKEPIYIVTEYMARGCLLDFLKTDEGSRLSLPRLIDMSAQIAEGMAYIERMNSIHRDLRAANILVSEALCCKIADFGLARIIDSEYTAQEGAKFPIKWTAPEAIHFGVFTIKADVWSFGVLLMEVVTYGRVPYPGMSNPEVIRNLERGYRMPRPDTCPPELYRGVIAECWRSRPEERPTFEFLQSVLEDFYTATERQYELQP
Sequence of EGFR (P00533 25-1210): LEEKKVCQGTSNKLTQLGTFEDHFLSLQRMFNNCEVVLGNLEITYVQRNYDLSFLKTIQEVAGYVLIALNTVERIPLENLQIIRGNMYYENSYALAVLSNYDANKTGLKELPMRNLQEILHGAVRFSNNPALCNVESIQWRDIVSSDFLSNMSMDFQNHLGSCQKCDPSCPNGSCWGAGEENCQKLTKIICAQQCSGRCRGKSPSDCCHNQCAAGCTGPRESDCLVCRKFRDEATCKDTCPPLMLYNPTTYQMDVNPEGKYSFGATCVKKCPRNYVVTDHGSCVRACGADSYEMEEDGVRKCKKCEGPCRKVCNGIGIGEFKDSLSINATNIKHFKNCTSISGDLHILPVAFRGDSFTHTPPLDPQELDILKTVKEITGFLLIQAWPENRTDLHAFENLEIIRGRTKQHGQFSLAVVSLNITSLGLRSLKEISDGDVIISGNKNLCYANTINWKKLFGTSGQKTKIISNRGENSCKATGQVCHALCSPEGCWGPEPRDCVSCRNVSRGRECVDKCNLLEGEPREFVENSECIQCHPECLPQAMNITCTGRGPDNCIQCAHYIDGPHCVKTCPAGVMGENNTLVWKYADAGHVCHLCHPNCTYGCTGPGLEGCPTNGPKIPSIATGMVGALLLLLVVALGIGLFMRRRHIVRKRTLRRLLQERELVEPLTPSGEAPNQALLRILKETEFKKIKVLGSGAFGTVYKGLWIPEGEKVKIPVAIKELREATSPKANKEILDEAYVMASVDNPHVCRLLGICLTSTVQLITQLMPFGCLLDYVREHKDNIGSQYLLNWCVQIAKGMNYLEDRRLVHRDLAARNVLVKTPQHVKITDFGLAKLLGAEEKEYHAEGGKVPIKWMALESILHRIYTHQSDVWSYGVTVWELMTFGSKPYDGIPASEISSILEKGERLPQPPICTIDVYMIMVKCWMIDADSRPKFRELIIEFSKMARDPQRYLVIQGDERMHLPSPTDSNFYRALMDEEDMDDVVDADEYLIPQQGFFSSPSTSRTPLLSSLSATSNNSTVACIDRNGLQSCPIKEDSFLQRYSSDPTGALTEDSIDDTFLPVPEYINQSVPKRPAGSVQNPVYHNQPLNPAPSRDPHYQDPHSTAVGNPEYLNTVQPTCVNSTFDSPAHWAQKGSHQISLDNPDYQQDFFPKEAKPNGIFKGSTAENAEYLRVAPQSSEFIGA
Sequence of Lyn (P07948 whole entry): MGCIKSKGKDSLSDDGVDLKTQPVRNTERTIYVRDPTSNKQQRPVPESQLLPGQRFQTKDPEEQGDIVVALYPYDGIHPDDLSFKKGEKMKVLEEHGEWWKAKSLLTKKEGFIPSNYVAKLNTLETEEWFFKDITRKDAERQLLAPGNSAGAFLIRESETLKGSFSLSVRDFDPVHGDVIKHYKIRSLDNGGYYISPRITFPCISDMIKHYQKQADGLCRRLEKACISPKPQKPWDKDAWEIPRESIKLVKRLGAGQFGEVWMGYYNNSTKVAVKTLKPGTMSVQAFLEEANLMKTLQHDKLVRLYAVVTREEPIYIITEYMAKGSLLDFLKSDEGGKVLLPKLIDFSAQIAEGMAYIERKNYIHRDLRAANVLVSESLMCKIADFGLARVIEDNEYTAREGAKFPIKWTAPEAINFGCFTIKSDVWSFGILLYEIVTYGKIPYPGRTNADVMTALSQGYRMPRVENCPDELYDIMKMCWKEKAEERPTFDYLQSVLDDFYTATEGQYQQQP

| Compound | IC50 (Tec) [nM] | IC50 (EGFR) [nM] | IC50 (Lck) [nM] | IC50 (Btk) [nM] | IC50 (BMX) [nM] | IC50 (CSK) [nM] | IC50 (C-src) [nM] | IC50 (Lyn) [nM] | IC50 (BLK) [nM] | IC50 (RET) [nM] |
| --- | --- | --- | --- | --- | --- | --- | --- | --- | --- | --- |
| Cc1ccc(-c2nn([C@@H]3CCN(C(=O)/C=C/CN(C)C)C3)c3ncnc(N)c23)cc1 [Example 4, (R,E)-1-(3-(4-amino-3-p-tolyl-1H-pyrazolo[3,4-d]pyrimidin-1-yl)pyrrolidin-1-yl)-4-(dimethylamino)but-2-en-1-one] | < 100 | 100 to 1000 | 100 to 1000 | < 100 | < 100 | > 1000 | 100 to 1000 | 100 to 1000 | < 100 | 100 to 1000 |
| COc1cccc(-c2nn([C@@H]3CCN(C(=O)/C=C/CN(C)C4CCC4)C3)c3ncnc(N)c23)c1 [Example 13, (R,E)-1-(3-(4-amino-3-(3-methoxyphenyl)-1H-pyrazolo[3,4-d]pyrimidin-1-yl)pyrrolidin-1-yl)-4-(cyclobutyl(methyl)amino)but-2-en-1-one] | < 100 | > 1000 | 100 to 1000 | < 100 | < 100 | > 1000 | > 1000 | > 1000 | 100 to 1000 | > 1000 |
| CN(C)C/C=C/C(=O)N(C)c1cccc(-n2nc(-c3ccc(Cl)cc3)c3c(N)ncnc32)c1 [Example 21, (E)-N-(3-(4-amino-3-(4-chlorophenyl)-1H-pyrazolo[3,4-d]pyrimidin-1-yl)phenyl)-4-(dimethylamino)-N-methylbut-2-enamide] | < 100 | < 100 | 100 to 1000 | < 100 | < 100 | > 1000 | 100 to 1000 | > 1000 | < 100 | > 1000 |
| CN(C/C=C/C(=O)N1CC[C@@H](n2nc(-c3ccc(F)cc3)c3c(N)ncnc32)C1)C1CCC1 [Example 11, (R,E)-1-(3-(4-amino-3-(4-fluorophenyl)-1H-pyrazolo[3,4-d]pyrimidin-1-yl)pyrrolidin-1-yl)-4-(cyclobutyl(methyl)amino)but-2-en-1-one] | < 100 | > 1000 | 100 to 1000 | < 100 | < 100 | > 1000 | > 1000 | > 1000 | > 1000 | > 1000 |
| COc1ccc(-c2nn([C@@H]3CCN(C(=O)/C=C/CN(C)C)C3)c3ncnc(N)c23)cc1 [Example 5, (R,E)-1-(3-(4-amino-3-(4-methoxyphenyl)-1H-pyrazolo[3,4-d]pyrimidin-1-yl)pyrrolidin-1-yl)-4-(dimethylamino)but-2-en-1-one] | < 100 | > 1000 | 100 to 1000 | < 100 | < 100 | > 1000 | 100 to 1000 | 100 to 1000 | < 100 | 100 to 1000 |
| COc1cccc(-c2nn([C@@H]3CCN(C(=O)/C=C/CN(C)C)C3)c3ncnc(N)c23)c1 [Example 6, (R,E)-1-(3-(4-amino-3-(3-methoxyphenyl)-1H-pyrazolo[3,4-d]pyrimidin-1-yl)pyrrolidin-1-yl)-4-(dimethylamino)but-2-en-1-one] | < 100 | 100 to 1000 | 100 to 1000 | < 100 | < 100 | > 1000 | < 100 | 100 to 1000 | < 100 | 100 to 1000 |
| COCCOc1ccc(-c2nn([C@@H]3CCN(C(=O)/C=C/CN(C)C)C3)c3ncnc(N)c23)cc1 [Example 2, (E)-1-((R)-3-(4-amino-3-(4-(2-methoxyethoxy)phenyl)-1H-pyrazolo[3,4-d]pyrimidin-1-yl)pyrrolidin-1-yl)-4-(dimethylamino)but-2-en-1-one] | 100 to 1000 | – | > 1000 | < 100 | < 100 | > 1000 | > 1000 | > 1000 | < 100 | > 1000 |
| COc1cc(-c2nn(-c3cccc(N(C)C(=O)/C=C/CN(C)C4CC4)c3)c3ncnc(N)c23)ccc1C [Example 24, (E)-N-(3-(4-amino-3-(3-methoxy-4-methylphenyl)-1H-pyrazolo[3,4-d]pyrimidin-1-yl)phenyl)-4-(cyclopropyl(methyl)amino)-N-methylbut-2-enamide] | < 100 | – | 100 to 1000 | < 100 | < 100 | > 1000 | 100 to 1000 | < 100 | < 100 | > 1000 |

— patent publication US9546172B2, “Pyrazolo[3,4-d]pyrimidine and pyrazolo[2,3-d]pyrimidine compounds as kinase inhibitors” (Pharmacyclics LLC, priority 2011, dated 2017)
